Data from patent US11472812B2, “Anti-cancer compounds targeting Ral GTPases and methods of using the same” (The Regents of the University of Colorado, a body corporate, priority 2014, dated 2022).
“Also recorded” adds a separate entry of the source. Like-named read-outs stand apart in the source and are kept apart here.

Legend:
[1] = tested on: H2122 cells; assay: Soft agar colony formation (anchorage-independent growth); type: cell-based, human; conditions: for further growth inhibition by drug after siRNA knockdown of RalA and RalB: H2122 cells with siRNA knockdown of RalA and RalB; for growth inhibition effect with overexpression of constitutively active RalAG23V or RalBG23V: H2122 cells, transient transfection
Experimental: (§1) The effects of RBC8 and BQU57 on human lung cancer cell growth were evaluated. Because Ral is well-known for its role in anchorage independence, we carried out growth inhibition assays in soft agar. Four human lung cancer cells H2122, H358, H460 and Calu6 were used in a series of experiments to determine drug uptake, biologic specificity, and effect. To measure growth inhibition of human lung cancer cells under anchorage-independent conditions in soft agar, cells were seeded into 6-well plates (coated with a base layer made of 2 ml of 1% low-melting-point agarose) at 15,000 cells per well in 3 ml of 0.4% low-melting-point agarose containing various concentration of drug. Two to four weeks (depending on cell line) after incubation, cells were stained with 1 mg/ml MTT and colonies were counted under a microscope.
(§2) For the chemo-genetic experiments, siRNA treated cells were seeded into soft agar in the presence of various concentrations of drug. For the overexpression experiments, H358 cells stably overexpressing FLAG, FLAG-RalA^G23V or FLAG-RalB^G23V were generated and cells were subjected to the soft agar colony formation assay in the presence of drug. Attempts to stably overexpress FLAG-RalA^G23V or FLAG-RalB^G23V in H2122 cells were unsuccessful and the rescue experiments with H2122 were carried out 72 hrs after the transient transfection with FLAG, FLAG-RalA^G23V or FLAG-RalB^G23V using the soft agar colony formation assay in the presence of drug.

[2] = tested on: H358 cells; assay: as above; type: cell-based, human; conditions: for further growth inhibition by drug after siRNA knockdown of RalA and RalB: H358 cells with siRNA knockdown of RalA and RalB; for growth inhibition effect with overexpression of constitutively active RalAG23V or RalBG23V: H358 cells, stable overexpression
Experimental: as §1, §2

[3] = tested on: H2122 human lung cancer cells; assay: H2122 xenograft tumor growth; type: in vivo, nude mice; conditions: i.p. daily except weekends, initiated 24 h after inoculation; RBC8 50 mg/kg/d; BQU57 and BQU85 5, 10, 20, and 50 mg/kg/d
Experimental: We next determined compound entry into tumor tissue. To do so, athymic nude mice (Ncr nu/nu; National Cancer Institute, Fredrick, Md.) were received at 5 to 6 weeks of age and were allowed to acclimate for 2 weeks in sterile micro isolator cages with constant temperature and humidity. Mice had free access to food and water. H2122 cells in log-phase growth were harvested on the day of use. Cells were suspended in un-supplemented RPMI 1640 medium and 0.1 mL (2×10^5 cells) was injected s.c. four sites per mice. For H358 xenografts, cells (5×10^6) were mixed with matrigel (20% final concentration) and 0.1 mL was inoculated s.c. per site. After cell inoculation, mice were monitored daily, weighed twice weekly and caliper measurements begun when tumors visible. Tumor volume was calculated by (L×W2)/2, where L is longer measurement of tumor and W is the smaller tumor measurement. Drug treatment started the day after inoculation. Compounds were dissolved in DMSO and injected i.p. daily except weekends at 10/20/50 mg/kg. […] The effect of the Ral inhibitors on xenograft tumor growth was then tested in nude mice. Mice were inoculated subcutaneously with H2122 human lung cancer cells and treated intraperitoneally with 50 mg/kg/d (except weekends) of RBC8 24 h post inoculation.

[4] = target: T1, RalB-GDP (Homo sapiens, UniProt P11234, Q72L); assay: TROSY 15N-HSQC NMR chemical shift perturbation; type: binding; conditions: 100 μM RalB-GDP, 100 μM compound
T1 construct: made in house
T1 sequence (P11234 1-206 Q72L): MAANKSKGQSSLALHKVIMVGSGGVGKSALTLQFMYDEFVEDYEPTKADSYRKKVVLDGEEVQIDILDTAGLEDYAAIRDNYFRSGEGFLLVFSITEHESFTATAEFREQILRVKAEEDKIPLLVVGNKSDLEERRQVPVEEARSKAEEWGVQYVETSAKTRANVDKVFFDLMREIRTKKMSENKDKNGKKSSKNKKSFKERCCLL
Excerpt: (§3) To confirm the direct binding of the compounds to the target, we used TROSY ^15N-HSQC (Transverse Relaxation-Optimized Heteronuclear Single Quantum Coherence) NMR. RalB (Q72L mutant) in a pET16b (Novagen) plasmid was a kind gift from Dr. Darerca Owen (Cambridge University). RalB was purified with additional steps for loading with GDP or the non-hydrolyzable form of GTP, GMPNPP (GNP, Sigma-Aldrich). Uniform ^13C^15N-double labeled protein was produced in M9 media supplemented with ^15N-NH4Cl and ^13C-glucose. Samples were prepared for NMR in 50 mM sodium phosphate, pH 7.6, 100 mM NaCl and 1 mM MgCl2. All NMR experiments were recorded on an Agilent 900 MHz system at 25° C. Resonance assignments for the RalB-GNP complex were obtained from previously published studies deposited in Biological Magnetic Resonance Bank (BMRB, code: 15230). Chemical shift assignments of the RalB-GDP complex were obtained independently using HNCACB, CBCA(CO)NH and COCNH-TOCSY experiments. All NMR data was processed using NMRPipe and analyzed using CCPNMR analysis program. Assignment were obtained by automated assignment using PINE followed by manual verification. ^15N-HSQC experiments were used to monitor amide shifts from the RalB protein (100 μM) following the addition of compound reconstituted in deuterated DMSO. DMSO concentrations in the final sample were 0.5% or 1%; control samples were made with 0.5% or 1% deuterated DMSO and all samples containing compounds were compared to their corresponding […] control.
(§4) Because only the NMR structure of RalB in complex with GNP has been solved (PDB code 2KE5, BMRB entry 15230), we focused on this isoform. The ^15N-HSQC NMR spectrum of RalB-GDP and RalB-GNP were first determined and the chemical shift differences were analyzed. NMR spectra were then recorded in the presence of RBC8 or DMSO control. Binding of small molecules to the protein was monitored by the perturbation of ^15N-HSQC protein amide peaks.
(§5) A detailed NMR titration of the binding between BQU57 and RalB-GDP was carried out. […] In the absence of a crystal structure of RalB-GDP, a homology model was generated based on the sequence similarity to RalA-GDP and the residues that experienced chemical shift changes in the presence of drug was mapped onto this model (FIG. 3E).

[5] = target: T2, RalB-GNP (Homo sapiens, UniProt P11234, Q72L); assay: TROSY 15N-HSQC NMR chemical shift perturbation; type: binding; conditions: 100 μM RalB-GNP, 100 μM compound
T2 construct: made in house
T2 sequence (P11234 1-206 Q72L): T1 sequence (P11234 1-206 Q72L)
Excerpt: as §3, §4, §5

IC50 ([1]; H2122, soft agar, 2-4 weeks, read-out: IC50 (50% reduction in colony number)) [µM]	IC50 ([2]; H358, soft agar, 2-4 weeks, read-out: IC50 (50% reduction in colony number)) [µM]	SMILES	further growth inhibition by drug after siRNA knockdown of RalA and RalB [1]	growth inhibition effect with overexpression of constitutively active RalAG23V or RalBG23V [1]	IC50 ([1]; Homo sapiens, NCI-H2122, read-out: IC50 (50% reduction in colony number)) [µM]	further growth inhibition by drug after siRNA knockdown of RalA and RalB [2]	growth inhibition effect with overexpression of constitutively active RalAG23V or RalBG23V [2]	IC50 ([2]; Homo sapiens, NCI-H358, read-out: IC50 (50% reduction in colony number)) [µM]	xenograft tumor growth inhibition [3]	binding to RalB-GDP by 15N-HSQC chemical shift changes [4]	binding to RalB-GNP by 15N-HSQC chemical shift changes [5]
		Cc1nn(C)c2c1C(c1ccc(C(F)(F)F)cc1)C(C#N)=C(N)O2 (stereo not drawn) [BQU57, 6-amino-1,3-dimethyl-4-(4-(trifluoromethyl)phenyl)-1,4-dihydropyrano[2,3-c]pyrazole-5-carbonitrile]	did not result in significant further inhibition	rescue	2	did not result in significant further inhibition	rescue	1.3	dose-dependent growth inhibition effects were observed; also recorded: inhibited xenograft tumor growth	binding to the predicted site	did not bind
3.5	3.4	COc1ccc(OC)c(C2C(C#N)=C(N)Oc3n[nH]c(-c4ccc5ccccc5c4)c32)c1 (stereo not drawn) [RBC8]	did not result in significant further inhibition	rescue		did not result in significant further inhibition	rescue		inhibited xenograft tumor growth	showed changes in peak position of representative residues located in the allosteric site	did not bind
